Entries after “also recorded” stand apart in the source; their conditions may differ.

Here are results for four compounds from patent US11266768B2, “Stretch release drug delivery materials” (TRUSTEES OF BOSTON UNIVERSITY, priority 2013, dated 2022).

Data set [1] concerns type I collagen in fibroblasts. Conditions: cited from earlier work.
A short description of data set [2]: Tension-triggered release of FITC-BSA from mechanoresponsive drug delivery device (fluorescence). The data set is classed as physicochemical. The note with it: PBS with 10% serum. The source says: The amount of fluorescein isothiocyanate-labeled bovine serum albumin (FITC-BSA) released from the drug delivery system into the surrounding aqueous environment was quantified through fluorescence spectrophotometry. The fluorescein isothiocyanate is a fluorophore that is maximally excited around 495 nm and maximally emits at around 520 nm. The fluorescence intensity emitted at 520 nm was used to construct a standard curve of fluorescence versus FITC-BSA concentration. Unknown FITC-BSA concentrations in the release medium were calculated from this standard curve. The concentration values were then converted to amount (mass) of FITC-BSA released by multiplying by the concentration values by the total volume of solution into which the protein released. The amount of FITC-BSA actually released was then divided by the amount of FITC-BSA initially loaded into the device, to get a percentage of protein released as a function of time. (FIGS. 19-21)
A drug delivery device with incorporated fluorescein isothiocyanate-labeled bovine serum albumin (FITC-BSA) was fabricated in accordance with Example 1 above. The ends of the material were placed between two pieces of foam tape and further secured by applying glue to the ends in contact with the foam tape. The ends were then placed between the grips of a tensile tester machine (Instron 5848 Microtester) and the sample length between the grips was recorded. A water bath was placed under the sample arms, and the drug delivery device was submerged beneath 300 mL of phosphate-buffered saline (PBS) with 10% serum (fetal bovine serum). A magnetic stir bar was also added to the bath to ensure thorough mixing during the study. The Instron software was then programmed to extend the sample arms at a constant rate of 2 mm/s until a travel distance equivalent to the initial sample length was reached (corresponding to 100% strain). Once the device was stretched, aliquots of release medium were sampled at predetermined time points. The percentage of protein released into the surrounding aqueous environment was calculated using fluorescence spectrophotometry, as described in Example 13 above. Devices were also placed on the tensile tester, but in this instance they were not stretched (0% strain), to serve as control experiments. Release of the fluorescent protein from devices subjected to strain was rapid, and was achieved only under the application of strain. […] (FIG. 24)
A drug delivery device with incorporated fluorescein isothiocyanate-labeled bovine serum albumin (FITC-BSA) was fabricated in accordance with Example 1 above. The coating was electrosprayed using a tip-to-collector distance of 15 cm. The ends of the material were placed between two pieces of foam tape and further secured by applying glue to the ends in contact with the foam tape. The ends were then placed between the grips of a tensile tester machine (Instron 5848 Microtester) and the sample length between the grips was recorded. A water bath was placed under the sample arms, and the drug delivery device was submerged beneath 300 mL of phosphate-buffered saline (PBS) with 10% serum (fetal bovine serum). A magnetic stir bar was also added to the bath to ensure thorough mixing during the study. The Instron software was then programmed to extend the sample arms at a constant rate of 2 mm/s until a travel distance equivalent to half of the initial sample length was reached (corresponding to 50% strain), or equivalent to the entire initial sample length was reached (corresponding to 100% strain). Once the device was stretched, aliquots of release medium were sampled at predetermined time points. The percentage of protein released into the surrounding aqueous environment was calculated using fluorescence spectrophotometry, as described in Example 13 above. Devices were also placed on the tensile tester, but in this instance they were not stretched (0% strain) to serve as a control experiment. […]

The test system of another data set is OE33 cells. Kind of data set: OE33 cell viability with cisplatin release aliquots (MTS Assay). In kind it is cell-based. The note with it: release aliquots incubated 72 hours with OE33 cells. As for the experimental part:
Aliquots from release (FIG. 39) were incubated for 72 hours with OE33 cells, an oesophageal cell line. Cell viability from incubation of release aliquots over two hours were determined by MTS Assay, left. Cell viability at the 30-minute release at various strain magnitude are shown, right (p<0.05 for 30%, 100% when compared to 0%).
Cisplatin is used in the treatment of esophageal cancer. […] They used an esophageal cell line, OE33 (Sigma), to show the efficacy of cisplatin released from the tension-modulated drug delivery device, and that a dose-response curve can be generated using force and/or strain as the means to alter the dose. […] By altering the amount of force, the rate of cisplatin release can be controlled in order to provide a range of concentrations at fixed time points. The concentration of cisplatin can be either lower or higher than the IC50 value such that a similar curve may be created using force and/or strain on the x-axis, rather than, or in addition to, concentration.
Cisplatin can be loaded into these systems as described in Example 14. Cisplatin can be used to achieve dose-dependent tumor cell death, and also strain-dependent cell death. A strain-dependent release of cisplatin, a small hydrophilic drug molecule, can be seen in FIG. 39. Because cisplatin is a cytotoxic chemotherapeutic drug, the amount of cisplatin released correlates with cell viability (FIG. 40).

A further data set concerns OE33. Conditions: 72 hours of incubation; read-out: IC50 of cisplatin with OE33; cited from earlier work.
Data set [3] can be described thus: Tension-triggered release of cisplatin from mechanoresponsive drug delivery device (atomic absorption). In kind it is physicochemical. The note with it: for release of cisplatin from device: PBS. The source says:
The amount of cisplatin released from the drug delivery system into the surrounding aqueous environment was quantified through flameless atomic absorption spectroscopy (also known as graphite furnace atomic absorption or electrothermal absorption (Varian AA240Z Atomic Absorption)). The platinum atom has a strong absorbance band at 265.9 nm, and was used for detecting the presence of platinum (the major component of the anticancer agent cisplatin) in the release medium. A standard curve was first created, and aliquots (sampled at different timepoints) from the release medium with unknown cisplatin concentrations were determined from this standard curve. The concentration values were then converted to amount (mass) of cisplatin released by multiplying the concentration by the total volume of solution into which the agent released. The amount of cisplatin actually released was then divided by the amount of cisplatin initially loaded into the device, to get a percentage of cisplatin released as a function of time.
A drug delivery device with incorporated cisplatin was fabricated in accordance with Example 1 above. The ends of the material were placed between two pieces of foam tape and further secured by applying glue to the ends in contact with the foam tape. The ends were then placed between the grips of a tensile tester machine (Instron 5848 Microtester) and the sample length between the grips was recorded. A water bath was placed under the sample arms, and the drug delivery device was submerged beneath 300 mL of phosphate-buffered saline (PBS). A magnetic stir bar was also added to the bath to ensure thorough mixing during the study. The Instron software was then programmed to extend the sample arms at a constant rate of 2 mm/s until a travel distance equivalent to the initial sample length was reached (corresponding to 100% strain). […] The percentage of cisplatin released into the surrounding aqueous environment was calculated using flameless atomic absorption spectroscopy, as described in Example 16. […]

A short description of data set [4]: Strain-modulated release of SN-38 from mechanoresponsive drug delivery device (fluorimetry). Conditions: for release of SN-38 from device: PBS or RPMI with 10% v/v fetal bovine serum. In kind it is physicochemical. As for the experimental part: SN-38 from release media was quantified by mixing one (1) part release medium (containing drug) in three (3) parts 20 mM borate buffer (pH=9), which converts SN-38 to the carboxylate form. Fluorescence was detected by fluorimetry at an excitation of 380 nm and emission of 550 nm, as previously described (Yohe, J Controlled Release 2012, 162). (FIG. 42)
A drug delivery device with incorporated SN-38 was fabricated in accordance with Example 2, above. The ends of the material were placed between two pieces of foam tape and further secured by applying glue to the ends in contact with the foam tape. The ends were then placed between the grips of a tensile tester machine (Instron 5848 Microtester) and the sample length between the grips was recorded. A water bath was placed under the sample arms, and the drug delivery device was submerged beneath 300 mL of phosphate-buffered saline (PBS) or cell media, RPMI with 10% v/v fetal bovine serum. A magnetic stir bar was also added to the bath to ensure thorough mixing during the study. The Instron software was then programmed to extend the sample arms at a constant rate of 2 mm/s until a travel distance equivalent to thirty percent of the initial sample length was reached (corresponding to 30% strain), or equivalent to the entire initial sample length was reached (corresponding to 100% strain). Once the device was stretched, aliquots of release medium were sampled at predetermined time points. The percentage of SN-38 released into the surrounding aqueous environment was calculated using fluorimetry, as described in Example 31. Devices were also placed on the tensile tester, but in this instance they were not stretched (0% strain), to serve as control experiments. Release of the chemotherapy agent from devices subjected to 100% strain and more moderate from devices subjected to 30% strain. […] (FIG. 43)

For a further data set, the system named is OE33, oesophageal cancer. Kind of data set: OE33 cell viability with SN-38 release aliquots (MTS Assay). Conditions: release aliquots in RPMI with 10% fetal bovine serum incubated 96 hours. In kind it is cell-based. The source says: By altering the amount of strain, the rate of SN-38 release can be controlled in order to provide a range of concentrations at fixed time points. […] The concentration of SN-38 can be either lower or higher than the IC50 value such that a similar curve can be created using force and/or strain, rather than, or in addition to, concentration. […] Because SN-38 is a toxic chemotherapeutic drug, the amount of SN-38 released correlates with cell viability. […] (FIG. 44)

Consider TNF-α, for which the “effect on synthesis of type I collagen” value in data set [1] is given as “inhibit synthesis of type I collagen”.

Regarding “FITC-BSA: Fluorescein isothiocyanate-labeled bovine serum albumin, model protein”, the “release of FITC-BSA from device” value in data set [2] (0% strain, dry coating, tip-to-collector distance 15 cm) is reported as “did not release appreciable amounts of protein; also recorded: minimal release”; in data set [2] (50% strain, dry coating, tip-to-collector distance 15 cm), “more moderate; also recorded: modest release profile”; in data set [2] (100% strain) it was “rapid release”; in data set [2] (100% strain, listed as protein), “rapid drug release”; in data set [2] (100% strain, dry coating, tip-to-collector distance 15 cm) it was “most rapid; also recorded: rapid release”; in data set [2] (no applied tension (0% strain)) it was “did not release appreciable amounts of protein; also recorded: minimal release”. In addition, the “release of FITC-BSA from device” value in data set [2] (no applied tension (0% strain), listed as protein) is reported as “did not release appreciable amounts of drug”.

As a reminder, the IC50 is the midpoint of a concentration-inhibition curve. With `N.N.[Cl][Pt][Cl]` [cisplatin, Cis-diamminedichloroplatinum(II)], the “cell viability with released cisplatin” value in the data set with OE33 cells is reported as “deliver an efficacious amount of cisplatin to change the cell viability”. The IC50 in the data set with OE33 was 2.17 µM. Besides, the “release of cisplatin from device” value in data set [3] (100% strain) is “rapid release”; in data set [3] (no applied tension (0% strain)), “did not release appreciable amounts of drug; also recorded: minimal release”. Also, in data set [3] (cell media solution (RPMI) with fetal bovine serum (10% v/v)), the “dependence of cisplatin release on strain” value is “strain-dependent; also recorded: tension-dependent”.

As for `CCc1c2c(nc3ccc(O)cc13)-c1cc3c(c(=O)n1C2)COC(=O)[C@]3(O)CC` [SN-38, 7-ethyl-10-hydroxycamptothecin], the “dependence of SN-38 release on strain” value in data set [4] is “strain-dependent”. For the same compound, the “release of SN-38 from device” value in data set [4] (0% strain) was “did not release appreciable amounts of drug”; in data set [4] (30% strain), “more moderate”. The “cell viability with released SN-38” value in the data set on OE33, oesophageal cancer is listed as “deliver an efficacious amount of SN-38 to change the cell viability; also recorded: significant decreases in viability with increasing strain”.
